Experiment in all cases: inhibition of tumour cell growth, NCI panel, 48 h
Assay [1] has as its system ACHN renal.
Assay [2] concerns CCRF-CEM leukemia.
Assay [3] relates to HOP-92 NSCLC.
Assay [4] deals with IGROV1 ovarian.
Assay [5] relates to K-562 leukemia.
Assay [6] has as its system NCI-H460 lung.
Assay [7] concerns SF-295 CNS.
Assay [8] concerns SNB-19 CNS.
Assay [9] relates to TK-10 renal.

Our source for the TGI and GI50 values is PubChem BioAssay (NCI).

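Values below derive from 48-hour exposures of cells grown in 96-well plates, with endpoints linearly interpolated between the two concentrations bracketing the appropriate inhibition level. GI50 marks 50% less growth. TGI: concentration producing complete growth inhibition.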 Some results are limits rather than exact numbers.

Turning to `CN(C)NC1=C([N+](=O)[O-])C=NN(c2ccccc2)C1`, the TGI in assay [1] is 3.18 µM; in assay [2], 4.52 µM; in [3], 3.76 µM; in [4] it was 3.9 µM; in assay [5], 6.15 µM; in assay [6] it was 4.1 µM. The results for the TGI in assay [7], in assay [8] and in assay [9] were 3.2 µM, 4.98 µM and 11.8 µM, respectively.

Turning to `N#C/C(=C\c1c(O)cc(O)cc1O)C(N)=O`, the TGI in assay [1], in [2], in assay [3], in [5], in [6] and in assay [7] was above 100 µM throughout. Also, the TGI in assay [8] and in [9] was above 100 µM each time.

For the molecule `CCC12C=CCN(CCc3c([nH]c4ccccc34)/C=C\1)C2` (centres undefined), the TGI in assay [1], in [2], in assay [4], in assay [5], in [6] and in assay [7] was above 100 µM each time. In addition, the TGI in assay [8] was above 100 µM.

As to `O=C(O)c1ccc2c(c1)C(=O)N(c1ccc(S(=O)(=O)c3ccc(N4C(=O)c5ccc(C(=O)O)cc5C4=O)cc3)cc1)C2=O`, the TGI in assay [1], in [2], in assay [5], in [6], in assay [7] and in assay [8] was above 100 µM in each case. The TGI in assay [9] is above 100 µM.

In the case of `COC(=O)c1c(O)ccc(O)c1C(C(C)=O)C(C)=O`, the TGI in assay [2], in assay [3], in assay [4], in assay [5], in [6] and in [7] was above 100 µM each time. Also, the TGI in [8] and in assay [9] was above 100 µM throughout.

Regarding `Cc1ccc2c(c1)-c1c3c(nn1C)-c1ccccc1SC3O2` (centres undefined), the TGI in assay [1], in assay [2], in assay [3], in [4], in assay [5] and in assay [6] was above 100 µM in each case. Moreover, the TGI in [7] and in assay [9] was above 100 µM in each case.

On to `O=C(/C=C/c1ccc(Cl)c(Cl)c1)c1ccccc1Cl`, for which the TGI was found to be 28.6 µM in assay [1]; 19.1 µM in assay [2]; 31.7 µM in [3]; 24.2 µM in [4]; 19.4 µM in assay [5]; 27.2 µM in assay [6]. For the same molecule, the TGI was determined as 26.9 µM in assay [7], 25.1 µM in [8] and 47.9 µM in [9].

On to `Cc1ccccc1NC(=O)/C(=N\NC(N)=S)C(C#N)c1ccccc1` (centres undefined), for which the TGI in assay [1], in [2], in assay [3], in [4], in [5] and in [6] was above 100 µM each time. For the same molecule, the TGI in assay [7], in assay [8] and in assay [9] was above 100 µM throughout.

Regarding `Cc1cccc(C)c1NC(=O)CCC(=O)NC(N)=NC#N`, the TGI in assay [1], in [2], in assay [3], in assay [4], in assay [5] and in assay [6] was above 100 µM in each case. Moreover, the TGI in assay [7], in [8] and in assay [9] was above 100 µM in each case.

On to `CCOC(=O)C1=C(C)NC(=O)NC1c1ccc(OC)cc1OC` (centres undefined), for which the TGI in [1], in [2], in assay [3], in assay [4], in assay [5] and in assay [6] was above 100 µM each time. For the same molecule, the TGI in assay [7], in assay [8] and in assay [9] was above 100 µM throughout.

On to `Nc1cccc2c1-c1c(cccc1[N+](=O)[O-])C2=O`, for which the TGI in assay [2], in [3], in assay [4], in assay [5], in assay [6] and in assay [7] was above 100 µM throughout. The TGI in [8] and in assay [9] was above 100 µM throughout.

With `O=c1nc2sc3ccccc3c(=O)n2[nH]1`, the TGI in assay [1], in [2], in [3], in [4], in assay [5] and in assay [6] was above 100 µM in each case. Further, the TGI in assay [7], in assay [8] and in assay [9] was above 100 µM in each case.

In the case of `C[C@]12CC[C@H](O[C@@H]3O[C@H](CO[C@@H]4O[C@H](CO)[C@@H](O)[C@H](O)[C@H]4O)[C@@H](O)[C@H](O)[C@H]3O)C[C@@H]1CC[C@@H]1[C@@H]2CC[C@]2(C)[C@@H](C3=CC(=O)OC3)CC[C@]12O`, the TGI in assay [1] is above 100 µM; in assay [2] it was above 100 µM; in assay [3], above 89.1 µM; in assay [4], 56.3 µM; in assay [5] it was above 100 µM; in assay [6], above 44.9 µM. Moreover, the TGI in assay [7] was above 31.6 µM; in [8], above 100 µM; in assay [9] it was above 51.6 µM.

In the case of `CC(=O)OCC1OC(n2cccnc2=O)C(OC(C)=O)C1OC(C)=O` (centres undefined), the TGI in assay [1], in [2], in assay [3], in assay [5], in [6] and in assay [8] was above 100 µM throughout. The molecule further came in with a TGI in [9] above 100 µM.

Regarding `CC1(C)C(=O)OC(n2cc(F)c(=O)[nH]c2=O)C1=O` (centres undefined), the TGI in assay [1] was above 100 µM; in [2] it was above 100 µM; in assay [3], 98.6 µM; in assay [5] it was above 100 µM; in assay [6] it was above 100 µM; in assay [7], above 100 µM. For the same molecule, the TGI in assay [8] and in assay [9] was above 100 µM in each case.

`Cc1ccc(S(=O)(=O)OCOS(=O)(=O)c2ccc(C)cc2)cc1`: the TGI in assay [1], in assay [2], in assay [4], in assay [5], in [6] and in [7] was above 100 µM in each case. For the same molecule, the TGI in assay [8] and in [9] was above 100 µM in each case.

On to `N#Cc1c2ccccc2c(Cc2ccc3c(c2)OCCOCCOCCOCCOCCO3)c2ccccc12`, for which the TGI is 21.7 µM in assay [1]; above 100 µM in assay [2]; 12.2 µM in assay [3]; 19.5 µM in assay [4]; above 100 µM in assay [5]; 25.1 µM in [6]. Besides, the TGI came to 21.3 µM in [7], 24.5 µM in assay [8] and 19.3 µM in assay [9].

With `Cc1ccccc1NC(=O)Cc1nc2ccccc2s1`, the TGI in assay [1] was 29.7 µM; in [2], 33 µM; in assay [5], 38.7 µM; in assay [6], 38.2 µM; in [7], 29.2 µM; in assay [8], above 100 µM. This molecule also had a TGI in assay [9] of 41 µM.

Consider `CC1(C)c2ccccc2N2C(c3ccccc3)=NOC21C` (centres undefined), for which the TGI in [1], in assay [2], in assay [3], in assay [4], in assay [5] and in assay [6] was above 100 µM in each case. Besides, the TGI in assay [7], in assay [8] and in assay [9] was above 100 µM each time.

As to `C[P+]1(Cc2ccccc2)CCCC1`, the TGI in assay [1], in assay [2], in [4], in assay [5], in [6] and in assay [7] was above 100 µM each time. For the same molecule, the TGI in assay [8] and in assay [9] was above 100 µM each time.

For the molecule `CCOC(=O)C1=C(OC(OCC)C([Se]c2ccccc2)C(C)C)CCC1` (centres undefined), the TGI in assay [1] is 62 µM; in assay [2], 27.8 µM; in assay [3] it was 51.1 µM; in assay [4] it was 52.4 µM; in [5], above 100 µM; in [6], 31.4 µM. Besides, the TGI in assay [7] was 44.5 µM; in [8], above 100 µM; in assay [9], above 100 µM.

For the molecule `O=C(NC1CC1)c1c(O)[nH]c(=S)[nH]c1=O`, the TGI in assay [1], in [2], in assay [3], in [4], in assay [5] and in assay [6] was above 100 µM throughout. The TGI in assay [7], in assay [8] and in assay [9] was above 100 µM throughout.

Regarding `CC(=O)[CH-]C(=O)c1ccccc1.CC(=O)[CH-]C(=O)c1ccccc1.Cl.[O-]c1ccnc2ccccc12.[O-]c1ccnc2ccccc12.[Ti+4]`, the GI50 in [1], in assay [2], in assay [3], in assay [4], in assay [5] and in assay [6] was above 100 µM throughout. The GI50 in assay [7] and in assay [8] was above 100 µM throughout. Moreover, the TGI in assay [1], in assay [2], in [3], in assay [4], in assay [5] and in assay [6] was above 100 µM throughout. Besides, the TGI in assay [7] and in assay [8] was above 100 µM in each case.

Consider `Cc1cccc(NC(=O)C(=O)C(C2OC(=O)c3ccccc32)[N+](=O)[O-])c1C` (centres undefined), for which the TGI in [1] turned out to be 22.9 µM; in assay [2], 20.4 µM; in assay [4], 27.7 µM; in assay [5], 39.7 µM; in [6], 18.7 µM; in assay [7] it was 28.1 µM. The TGI was determined as 35.1 µM in [8] and 32 µM in assay [9].

As to `C/C=C/C(=O)Oc1cccc2cccnc12`, the TGI in assay [1] is above 100 µM; in assay [2], 31.7 µM; in assay [3] it was 57.9 µM; in assay [4], above 94.7 µM; in assay [5], above 100 µM; in assay [6], 23 µM. Moreover, the TGI in assay [7], in assay [8] and in assay [9] was above 100 µM in each case.

Take `Oc1ccc2c(=S)cc(-c3ccc(Br)cc3)oc2c1O`: the GI50 in assay [1] is 2.35 µM; in assay [2], 2.53 µM; in assay [3] it was 1.69 µM; in assay [4], 2.56 µM; in [5], 2.47 µM; in assay [6], 0.973 µM. Further, the figures for the GI50 in assay [7], in [8] and in [9] were 4.01 µM, 2.95 µM and 4.16 µM, respectively. Further, the TGI is 11.8 µM in assay [1]; 8.03 µM in [2]; 6.11 µM in assay [3]; 9.96 µM in assay [4]; above 100 µM in [5]; 19 µM in assay [6]. The results for the TGI in [7], in [8] and in assay [9] were 29.8 µM, above 100 µM and 14.7 µM, respectively.

For `CC(=O)OC1CCC2OOC1O2` (centres undefined), the TGI in [1], in assay [2], in [4], in assay [5], in assay [6] and in [7] was above 100 µM in each case. Also, the TGI in [8] and in [9] was above 100 µM in each case.

In the case of `CN(C)NC(=O)/C(=C/c1ccc(Cl)cc1)NC(=O)c1ccccc1`, the TGI in assay [1], in assay [2], in assay [3], in assay [4], in assay [5] and in assay [6] was above 100 µM each time. Besides, the TGI in assay [7], in [8] and in assay [9] was above 100 µM throughout.

Regarding `Cn1[nH]cc2ccc3nc4ccccc4c(=O)c3c21`, the TGI in assay [1] is 98.6 µM; in assay [2] it was above 100 µM; in assay [3] it was above 83 µM; in assay [4], above 100 µM; in assay [5] it was above 100 µM; in assay [6] it was above 89.5 µM. Besides, the results for the TGI in assay [7], in [8] and in [9] were above 96.3 µM, above 100 µM and 72.2 µM, respectively.

As for `CCOC(=O)c1cc(=O)n(C)c(=O)n1C`, the TGI in assay [1], in [2], in [3], in assay [4], in assay [5] and in assay [6] was above 100 µM each time. Besides, the TGI in assay [7], in [8] and in assay [9] was above 100 µM in each case.
